Laboratory results published in US8519163B2, “Anti-tumor activity of AECHL-1, novel triterpenoid isolated from Ailanthus excelsa in vitro and in vivo” (National Centre for Cell Science, priority 2008, dated 2013).

Legend:
B16F10 melanoma cells = test: In vivo allograft tumor model; design: species or system C57B1/6 mice
Experimental: (§1) The data reported for tumor volumes are expressed as mean±SEM. Statistical differences were determined by ANOVA and post test applied was Tukey-Kramer multiple comparison Test. For Tumor to body weight ratio post test applied was Dunnett multiple comparisons test.

p21 = test: Western blot of tumor homogenates of C57B1/6 mice; assay type: in vivo, mouse; conditions: tumor of C57 mice, 100 μg
Experimental: (§2) Prior to immunoblot analysis, tumor segments stored at −80° C. were thawed, washed, minced and homogenized in lysis buffer (120 mM NaCl, 1.0% Triton X 100, 20 mM Tris-HCl, pH 7.5, 10% glycerol, 2 mM EDTA, Protease inhibitor cocktail, Roche) using a Polytron homogenization device. Lysates were incubated at 4° C. for 30 min and centrifuged at 14000 r.p.m. in an Eppendorf micro centrifuge for 15 min. Proteins were isolated in solublised form. Protein concentrations were measured by Bradford assay (Bio-Rad protein assay kit) and stored at −80° C. For immunobloting, 60 μg of total protein from the tumor lysates were used Proteins were resolved in a 10% SDS-polyacrylamide gel, transferred to the immobilon-P […] membrane and blocked with 5% (wt/v) non fat dry milk powder (Sigma) in TBST buffer (10 mM Tris pH 7.6, 150 mM NaCl and 0.1% Tween-20) for three hours at room temperature and then incubated with primary antibodies p53, pp53, p21, Cyclin D1, CDK4 and c-Myc in TBST for 3 h and with actin for 1 hour at room temperature. The membrane was incubated further with the secondary antibody HRP-conjugated (BD Bioscience) at 1:10000 dilution for 1 h at room temperature. Following each antibody incubation, the membrane was washed thoroughly with TBST buffer 3 times. The protein bands were visualized using the enhanced chemiluminescence substrate reaction (Pierce) according to the manufacturer's instructions using X-OMAT AR5 film (Kodak)

p53 = test: Western blot of tumor homogenates of C57B1/6 mice; assay type: in vivo, mouse; conditions: tumor of C57 mice, 100 μg, compared with control
Experimental: as §2

pp53 = test: Western blot of tumor homogenates of C57B1/6 mice; assay type: in vivo, mouse; conditions: tumor of C57 mice, 100 μg
Experimental: as §2

MCF-7 cells = test: Cell cycle analysis by flow cytometry; assay type: cell-based, human; conditions: 24 h
Experimental: The cell cycle analysis of MCF-7, B16F10 MDA-MB-231 and PC3 cells was done by flow cytometry. […] Cells were harvested with trypsin (0.05%), 0.02% EDTA, 0.05% glucose and a single-cell suspension was prepared. Cells were washed and were pelleted by centrifugation (1000×g for 2 min) and fixed in 70% ethanol while vortexing and stored at 4° C. for 1 hour. Fixed cells were pelleted by centrifugation, to remove ethanol and washed with PBS. Cells were re-suspended in PBS containing 50 μg/ml propidium iodide, 0.1 g/L RNase and 1% BSA, incubated for 30 min at 37° C. in the dark, and analyzed with flow cytometry (FACS Vantage-BD Sciences, USA) equipped with an argon laser at 488 nm. The data was analyzed using Cell Quest software for determining the percent population in different phases of cell cycle.

[1] = system: cellular microtubule network; test: Immunocytochemistry, microtubule network in MCF-7 cells; assay type: cell-based, human; conditions: paclitaxel 1-20 μM, AECHL-1 2-40 μM, 24 h, confocal microscopy
Experimental: Immunocytochemistry was performed as described previously. […] Cells were incubated with primary anti-p53 antibodies (1:100; Abcam) and anti-α-tubulin antibodies (1:10000; Sigma chemical Co.) for 1 hour at room temperature. After washing with PBS, cells were incubated with CY2-conjugated secondary antibodies (1:200; Chemicon, Germany) and Alexa-conjugated secondary antibodies (1:10000; Sigma, St. Louis, Mo.) for 45 minutes and nuclear staining was done with DAPI. Images were captured under confocal microscope.
The tumor suppressor p53 plays a critical role in preventing human cancer formation. It translocates into the nucleus and works as a transcription factor by upregulating cell cycle regulatory proteins and induces cell cycle arrest and/or programmed cell death (apoptosis) (11). […] After 24 h of incubation, the p53 translocation in the nucleus (green fluorescence) and microtubule network (red fluorescence) was visualized by confocal microscopy.

MCF-7 = test: In vivo xenograft tumor model; design: species or system athymic nude mice
Experimental: as §1

Compound: N.N.[Cl][Pt][Cl] [Cisplatin, reference compound]
- tumor size reduced by (B16F10 melanoma cells; B16F10 allograft, 100 μg intra-tumor for 12 days, day 18): 93.13±0.539%
- tumor volume on day 24 (B16F10 melanoma cells; B16F10 allograft, 100 μg, day 24): decreased
- histological examination of tumor tissue (B16F10 melanoma cells; C57 mice, 100 μg): significant increase in necrotic nuclei with decreased tumor cell density
- expression of p21 (p21): increased p21 expression
- p53 protein expression (p53): increasing expression
- phosphorylation of p53 (pp53) (pp53): did not show any change

Compound: CC(=O)O[C@H]1C(=O)[C@@]2(C)[C@H]([C@H](OC(=O)c3ccccc3)[C@]3(O)C[C@H](OC(=O)[C@H](O)[C@@H](NC(=O)c4ccccc4)c4ccccc4)C(C)=C1C3(C)C)[C@]1(OC(C)=O)CO[C@@H]1C[C@@H]2O [Paclitaxel, reference compound]
- Phase of cell cycle (% of cells) G2/M (MCF-7 cells; MCF-7, 1 μM): 72.55%
- Phase of cell cycle (% of cells) S (MCF-7 cells; MCF-7, 1 μM): 18.65%
- Phase of cell cycle (% of cells) Sub G0 (MCF-7 cells; MCF-7, 1 μM): 3.45%
- Phase of cell cycle (% of cells) G1 (MCF-7 cells; MCF-7, 2 μM): 7.41%
- Phase of cell cycle (% of cells) G2/M (MCF-7 cells; MCF-7, 2 μM): 63.71%
- Phase of cell cycle (% of cells) S (MCF-7 cells; MCF-7, 2 μM): 22.89%
- Phase of cell cycle (% of cells) Sub G0 (MCF-7 cells; MCF-7, 2 μM): 5.21%
- Phase of cell cycle (% of cells) G2/M (MCF-7 cells; MCF-7, 5 μM): 72.86%
- Phase of cell cycle (% of cells) S (MCF-7 cells; MCF-7, 5 μM): 18.35%
- Phase of cell cycle (% of cells) Sub G0 (MCF-7 cells; MCF-7, 5 μM): 3.98%
- Phase of cell cycle (% of cells) G2/M (MCF-7 cells; MCF-7, 10 μM): 69.36%
- Phase of cell cycle (% of cells) S (MCF-7 cells; MCF-7, 10 μM): 18.96%
- Phase of cell cycle (% of cells) Sub G0 (MCF-7 cells; MCF-7, 10 μM): 3.47%
- effect on microtubule network [1]: microtubule polymerization with an increase in the density of cellular microtubules
- tumor size reduced by (MCF-7; MCF-7 xenograft, 20 μg/0.05 ml intra-tumor for 10 days): 14.19±0.32%
- histological examination of tumor tissue (MCF-7; nude mice, 20 μg): lowered the tumor cell density
